Test results as given in ChEMBL document CHEMBL3217478, “Necrosulfonamide inhibits necroptosis by selectively targeting the mixed lineage kinase domain-like protein” (2014).
The source made the active and inactive calls. The calls are words filed in the database; no cut-off is given here. Residues, ends and D or L forms follow the SMILES beside them. *: point of attachment. X1 = COc1nc(CCCN*)cnc1NS(=O)(=O)c1ccc(NC(=O)CCc2cccs2)cc1; Biotin = O=C1N[C@H]2[C@H](CS[C@H]2CCCCC(=O)*)N1; Ahx = NCCCCCC(=O)O

What follows are compounds tested against T1, Mixed lineage kinase domain-like protein (Homo sapiens) (UniProt Q8NB16) (assay: Competitive binding affinity to Myc-tagged MLKL (unknown origin) transfected in human HeLa cells at 20 nM by Western blot analysis in presence of biotin-labeled positive probe). Conditions: not given.
T1 sequence (whole entry): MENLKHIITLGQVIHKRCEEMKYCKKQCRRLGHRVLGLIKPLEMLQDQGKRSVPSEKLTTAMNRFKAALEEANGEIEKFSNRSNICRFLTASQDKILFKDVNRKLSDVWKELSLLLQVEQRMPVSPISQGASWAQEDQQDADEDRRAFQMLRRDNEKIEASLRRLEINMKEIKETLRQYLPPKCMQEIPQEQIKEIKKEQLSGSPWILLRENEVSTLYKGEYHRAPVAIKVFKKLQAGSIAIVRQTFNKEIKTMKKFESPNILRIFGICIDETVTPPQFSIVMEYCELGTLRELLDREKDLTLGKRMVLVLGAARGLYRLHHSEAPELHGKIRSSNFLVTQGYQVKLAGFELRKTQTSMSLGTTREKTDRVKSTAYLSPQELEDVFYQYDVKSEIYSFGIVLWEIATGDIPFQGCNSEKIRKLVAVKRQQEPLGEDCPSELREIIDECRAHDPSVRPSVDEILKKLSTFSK
Assay type: cell-based

Row | SMILES | Activity
1 | COc1nccnc1NS(=O)(=O)c1ccc(NC(=O)/C=C/c2ccc([N+](=O)[O-])s2)cc1 | Active
2 | C#CCOc1nccnc1NS(=O)(=O)c1ccc(NC(=O)/C=C/c2sccc2[N+](=O)[O-])cc1 | inactive
3 | COc1nccnc1NS(=O)(=O)c1ccc(NC(=O)/C=C/c2ccc(Br)s2)cc1 | inactive

Each compound was assayed on HT-29 (assay: Cytoprotective activity against TNF-alpha, smac mimetic, z-VAD-induced necrosis in human HT-29 cells assessed as cell survival by measuring cellular ATP level at 4 uM after 24 hrs by Cell Titer-Glo assay relative to control). Conditions: not given.
Assay type: functional

Row | SMILES | Activity
4 | COc1nc(CCCNC(=O)CC[C@H](NC(=O)[C@@H]2CCCN2C(=O)[C@@H]2CCCN2C(=O)[C@@H]2CCCN2C(=O)[C@@H]2CCCN2C(=O)C2CCCN2C(=O)[C@@H]2CCCN2C(=O)[C@@H]2CCCN2C(=O)[C@@H]2CCCN2C(=O)[C@@H]2CCCN2C(=O)CCCCCNC(=O)CCCC[C@@H]2SC[C@@H]3NC(=O)N[C@@H]32)C(N)=O)cnc1NS(=O)(=O)c1ccc(NC(=O)/C=C/c2ccc([N+](=O)[O-])s2)cc1 (single isomer, unassigned) | Active
5 | COc1nc(CCCNC(=O)CC[C@H](NC(=O)[C@@H]2CCCN2C(=O)[C@@H]2CCCN2C(=O)[C@@H]2CCCN2C(=O)[C@@H]2CCCN2C(=O)[C@@H]2CCCN2C(=O)[C@@H]2CCCN2C(=O)[C@@H]2CCCN2C(=O)[C@@H]2CCCN2C(=O)[C@@H]2CCCN2C(=O)CCCCCNC(=O)CCCC[C@@H]2SC[C@@H]3NC(=O)N[C@@H]32)C(N)=O)cnc1NS(=O)(=O)c1ccc(NC(=O)CCc2cccs2)cc1 ({Biotin-Ahx}-PPPPPPPPPE(X1)-NH2) | inactive

Same assay, conditions: HT-29, 24 h, read-out: Survival

Row | SMILES | viability at 4 µM
6 | COc1nccnc1NS(=O)(=O)c1ccc(NC(=O)/C=C/c2ccc([N+](=O)[O-])s2)cc1 | 80.3%
7 | C#CCOc1nccnc1NS(=O)(=O)c1ccc(NC(=O)/C=C/c2sccc2[N+](=O)[O-])cc1 | 19.8%
8 | COc1nccnc1NS(=O)(=O)c1ccc(NC(=O)/C=C/c2ccc([N+](=O)[O-])cc2)cc1 | 32.2%
9 | COc1nccnc1NS(=O)(=O)c1ccc(NC(=O)CCc2ccc([N+](=O)[O-])s2)cc1 | 29.9%
10 | O=C(/C=C/c1ccc([N+](=O)[O-])s1)Nc1ccc(S(=O)(=O)Nc2nccnc2O)cc1 | 90.4%
11 | COc1nc(Br)cnc1NS(=O)(=O)c1ccc(NC(=O)/C=C/c2ccc([N+](=O)[O-])s2)cc1 | 90.8%
12 | COc1nccnc1NS(=O)(=O)c1ccc(NC(=O)/C=C/c2cccs2)cc1 | 29.5%
13 | COc1nccnc1NS(=O)(=O)c1ccc(NC(=O)CCc2cccs2)cc1 | 30.4%
14 | C#CCOc1nccnc1NS(=O)(=O)c1ccc(NC(=O)/C=C/c2ccc([N+](=O)[O-])s2)cc1 | 90.8%
15 | COc1nccnc1NS(=O)(=O)c1ccc(NC(=O)/C=C/c2cccc([N+](=O)[O-])c2)cc1 | 32%
16 | COc1nccnc1NS(=O)(=O)c1ccc(NC(=O)/C=C/c2ccc(Br)s2)cc1 | 31.8%
17 | Cc1cc(C)nc(NS(=O)(=O)c2ccc(NC(=O)/C=C/c3ccc([N+](=O)[O-])s3)cc2)n1 | 79.2%
18 | O=C(/C=C/c1ccc([N+](=O)[O-])s1)Nc1ccc(S(=O)(=O)Nc2nccnc2OCc2ccccc2)cc1 | 92.2%
